The text below walks through data of US20010018454A1, “Method for protecting wood and wooden articles from fungal infection” (priority 2000, published 2001).

Each structure is given as a SMILES string. Where two headings read alike, the source gives them in different places.

The subject of assay [1] is fungi. The note with it: cited from earlier work.
Assay [2] has as its system blue stain infection. The source says:
Immersion Impregnation with Aqueous Potassium Sorbate Solution Air-dry pine boards are dipped into a solution of 30% potassium sorbate in water for […] of the surface. After the treatment they are air dried.
Air-dried pine boards are, as in example 1, dipped into a solution of 30% potassium sorbate in a mixture of 75% by volume of water and 25% by volume of 1,2-propanediol, further treated and stored.
Air-dried pine boards are sprayed with a spraying pistol with a solution of 20% potassium sorbate in water until the surface is uniformly wet. The boards are then allowed to dry and are stored as in example 1.

In assay [3] the test system is molds. The note with it: 35° C. saturated water vapor. How it is done:
Two pinewood boards in each case are dipped into potassium sorbate solution (see table 1 for concentrations) and stored in a saturated water vapor atmosphere at 35° C. In parallel with this, in each case two pinewood boards, after the dipping, were additionally dirtied with soil on the surface in order to achieve greater surface contamination with molds. The boards were individually packed in film in order to exclude cross contaminations and regularly visually examined for fungal infection.

Assay [4] concerns wood-damaging fungi. The note with it: cited from earlier work.

On to `C/C=C/C=C/C(=O)[O-].[Na+]` [sodium sorbate], for which the “Protection of bamboo against fungal infection” value is “infection with fungi” in assay [1] (generally, even after a few days) and “active” in assay [1] (pH 3.0).

As for `C/C=C/C=C/C(=O)[O-].[K+]` [potassium sorbate], the “Fungal infection after storage” value is “completely free from fungal infection” in assay [2] (pine boards dipped in 30% potassium sorbate in 75% by volume water / 25% by volume 1,2-propanediol, stored as in example 1); “remain free from fungal infection” in assay [2] (pine boards dipped in 30% potassium sorbate in water, stored in the open three weeks next to untreated boards); “corresponds to that of example 1” in assay [2] (pine boards sprayed with 20% potassium sorbate in water, stored as in example 1). Further, the Fungal infection entry was “no/after 81 days” in assay [3] (V1: dwell time 10 min, 1 % by weight solution, without soil); “no/after 81 days” in assay [3] (V2: dwell time 10 min, 2 % by weight solution, without soil); “no/after 81 days” in assay [3] (V3: dwell time 10 min, 5 % by weight solution, without soil); “no/after 81 days” in assay [3] (V4: dwell time 5 min, 10 % by weight solution, without soil); “little/from day 43” in assay [3] (V5: dwell time 10 min, 1 % by weight solution, with soil); “little/from day 53” in assay [3] (V6: dwell time 10 min, 2 % by weight solution, with soil). Further, the Fungal infection result in assay [3] (V7: dwell time 10 min, 5 % by weight solution, with soil) was “no/after 81 days”; in assay [3] (V8: dwell time 5 min, 10 % by weight solution, with soil), “no/after 81 days”.

Regarding `C/C=C/C=C/C(=O)[O-].C/C=C/C=C/C(=O)[O-].[Zn+2]` [zinc salt of sorbic acid], the “Activity as wood preservative” value in assay [4] is “inactive”.
